Laboratory results taken from US20220354108A1, “PRESERVATION METHODS USING TREHALOSE WITH OTHER CRYOPROTECTANTS BEING ABSENT FROM THE CRYOPRESERVATION PROTOCOL” (TISSUE TESTING TECHNOLOGIES LLC, priority 2021, published 2022).
Where two headings read alike, the source gives them in different places.

Key:
Assay type in all cases: cell-based
[1] = tested on: bone marrow-derived human mesenchymal stem cells (hMSCs); details: for hMSC viability compared with DMSO control groups: 0.2 M trehalose
Protocol: Experiments were performed using bone marrow-derived human mesenchymal stem cells (hMSCs) from various commercial sources Human Bone-Marrow Derived Mesenchymal Stem/Stromal Cells (hBM-MSCs) were isolated from normal healthy adult donors (purchased from a commercial source (such as Rooster-Bio) along with the appropriate growth media). Cells were grown according to the manufacturer's instructions).
Prior to the development of the methodology of the present disclosure, the inventors of the instant application previously assessed a nanotechnology for intracellular trehalose delivery developed by Professor Xiaoming He, University of Maryland (Zhang et al., Cold-Responsive Nanoparticle Enables Intracellular Delivery and Rapid Release of Trehalose for Organic-Solvent-Free Cryopreservation, Nano Lett. 2019, 19, 9051-9061; Rao et al., Nanoparticle-Mediated Intracellular Delivery Enables Cryopreservation of Human Adipose-Derived Stem Cells Using Trehalose as the Sole Cryoprotectant, ACS Appl Mater Interfaces, 2015, 7(8), 5017-5028), that they had shown promoted cryopreservation of adipose tissue derived hMSCs, for bone marrow-derived MSCs. Unfortunately, the trehalose nanotechnology failed during these studies, probably due to instability of the trehalose nanoparticles during storage and transport from the University of Maryland to Charleston, S.C. […] Encouraged by these unanticipated results, the range of exogenous trehalose employed was expanded to 0.2-0.8M and compared −1, −5 and −15° C./minute cooling rates.
In the preliminary experiments, the DMSO controls were clearly the best at the 1° C./minute cooling rate (65.3±2.7% of untreated controls), however, the best overall outcome was the 0.2M trehalose group at the −15° C./minute cooling rate (78.9±3.5% of untreated controls).

Pan T-cells [2] = experiment: Pan T-cell survival after cryopreservation, live and dead cell counts (trypan blue); details: trehalose alone, no DMSO; −15° C./minute
Protocol: (§1) Experiments were performed to assess 0.2-0.8M concentrations of extracellular trehalose combined with several concentrations of 0-5% DMSO and compared with the positive control, Cryostor-5, that contains 5% DMSO.
(§2) Pan T-cells were grown and expanded. The T-cells were then harvested and counted. Approximately 10×10^6 cells were used for each sample. Cells were resuspended in the various combinations of DMSO and trehalose in 1 mL and allowed to equilibrate on ice for 20 minutes. Samples were cooled in a CRF at −15° C./minute to −80° C. then moved to liquid nitrogen vapor phase storage for approximately 10 days. After storage, samples were thawed rapidly in a 37° C. water bath, transferred to a 15 mL centrifuge tube and diluted with 10 mL culture medium. An aliquot was taken for cell counting. […] Cells were allowed to recover for 60 minutes in a 37° C. incubator before viability was measured using resazurin dye (300 μl). The cells were left for 3 hours at 37° C. before the plate was read using a fluorescent microplate reader at an excitation wavelength of 544 nm and an emission wavelength of 590 nm. […]
(§3) In FIGS. 3A and 3B, cell survival after cryopreservation at −15° C./minute using combinations of DMSO and trehalose. […] Cell counts, live and dead, (A) as well as metabolic activity (B) was measured. […]

Pan T-cells [3] = experiment: Pan T-cell metabolic activity after cryopreservation (resazurin dye); details: −15° C./minute
Protocol: as §1, §2, §3

Row | Compound | hMSC viability after cryopreservation [1] | protection during cryopreservation compared with control Cryostor-5 (Pan T-cells [2]) | cell metabolic activity, difference from control Cryostor-5 (Pan T-cells [3]; 0% DMSO with 0.2M trehalose, p>0.05) | cell metabolic activity, difference from control Cryostor-5 (Pan T-cells [3]; 0% DMSO, all trehalose groups except 0.2M) | hMSC viability compared with DMSO control groups ([1]; −5° C./minute cooling rate) | hMSC viability compared with DMSO control groups ([1]; −15° C./minute cooling rate) | MSC survival of cryopreservation ([1]; trehalose present only extracellularly (used as negative control))
1 | C[S+](C)[O-] [DMSO, dimethyl sulfoxide, reference compound] | 65.3±2.7 % of untreated controls | – | – | – | – | – | –
2 | OC[C@H]1O[C@H](O[C@H]2O[C@H](CO)[C@@H](O)[C@H](O)[C@H]2O)[C@H](O)[C@@H](O)[C@@H]1O [trehalose] | 78.9±3.5 % of untreated controls | adequate protection similar to the control | significant difference | no statistically significant differences | same or higher viability than the DMSO control groups | same or higher viability than the DMSO control groups | survived cryopreservation quite well
